Four compounds from article PMC11414412, “Design and synthesis new indole-based aromatase/iNOS inhibitors with apoptotic antiproliferative activity” (Frontiers in Chemistry, 2024) can be followed below.

The test system of one experiment is MCF-7 cells. Briefly: Antiproliferative assay, MCF-7. The conditions noted are these: Homo sapiens, MCF7; MCF-7 breast cancer cell line; read-out: Antiproliferative activity IC50 ± SEM, MCF-7. It counts as cell-based. On the procedure:
(§1) 4.2.2. Assay for antiproliferative effect
(§2) To explore the antiproliferative potential of compounds propidium iodide fluorescence assay was performed using different cell lines such as Panc-1 (pancreas cancer cell line), MCF-7 (breast cancer cell line), HT-29 (colon cancer cell line) and A-549 (epithelial cancer cell line), respectively. To calculate the total nuclear DNA, a fluorescent dye (propidium iodide, PI) is used which can attach to the DNA, thus offering a quick and precise technique. PI cannot pass through the cell membrane and its signal intensity can be considered as directly proportional to quantity of cellular DNA. Cells whose cell membranes are damaged or have changed permeability are counted as dead ones. The assay was performed by seeding the cells of different cell lines at a density of 3000-7500 cells/well (in200μl medium) in culture plates followed by incubation for 24h at 37 °C in humidified 5%CO2/95% air atmospheric conditions. The medium was removed; the compounds were added to the plates at 10 μM concentrations (in 0.1% DMSO) in triplicates, followed by incubation for 48h. DMSO (0.1%) was used as control. After incubation, medium was removed followed by the addition of PI (25 μl, 50μg/mL in water/medium) to each well of the plates. At - 80 °C, the plates were allowed to freeze for 24 h, followed by thawing at 25 °C. A fluorometer (Polar-Star BMG Tech) was used to record the readings at excitation and emission wavelengths of 530 and 620 nm for each well. The percentage cytotoxicity of compounds was calculated using […]
(§3) Where ATC= Absorbance of treated cells and AC= Absorbance of control. Erlotinib was used as positive control in the assay.

The test system of a further experiment is Panc-1 cells. Briefly: Antiproliferative assay, Panc-1. It counts as cell-based. The conditions noted are these: Homo sapiens; Panc-1 pancreatic cancer cell line; read-out: Antiproliferative activity IC50 ± SEM, Panc-1. On the procedure: as §1, §2, §3
The subject of another experiment is HT-29 cells. Briefly: Antiproliferative assay, HT-29. Type of experiment: cell-based. The conditions noted are these: Homo sapiens; HT-29 colon cancer cell line; read-out: Antiproliferative activity IC50 ± SEM, HT-29. The protocol: as §1, §2, §3
The test system of experiment [1] is four human cancer cell lines (A-549, MCF-7, Panc-1, HT-29). Briefly: Antiproliferative assay, average over four cancer cell lines (GI50). The conditions noted are these: for IC50: average of IC50 against A-549, MCF-7, Panc-1, HT-29. Type of experiment: cell-based. The protocol:
See Supplementary Appendix SA1 for more details.
as §1
To explore the antiproliferative potential of compounds propidium iodide fluorescence assay was performed using different cell lines such as Panc-1 (pancreas cancer cell line), MCF-7 (breast […]
respectively. To calculate the total nuclear DNA, a fluorescent dye (propidium iodide, PI) is used which can attach to the DNA, thus offering a quick and precise technique. PI cannot pass through the cell membrane and its signal intensity can be considered as directly proportional to quantity of cellular DNA. Cells whose cell membranes are damaged or have changed permeability are counted as dead ones. The assay was performed by seeding the cells of different cell lines at a density of […]
The medium was removed; the compounds were added to the plates at 10 μM concentrations (in 0.1% DMSO) in triplicates, followed by incubation for 48h. DMSO (0.1%) was used as control. After incubation, medium was removed followed by the addition of PI (25 μl, 50μg/mL in water/medium) to each well of the plates. At - 80 °C, the plates were allowed to freeze for 24 h, followed by thawing at 25 °C. A fluorometer (Polar-Star BMG Tech) was used to record the readings at excitation and emission wavelengths of 530 and 620 nm for each well. The percentage cytotoxicity of compounds was calculated using […]
Where ATC= Absorbance of treated cells and AC= Absorbance of control. […]
positive control in the assay.

The next experiment concerns the target T1, eNOS (Bos taurus, UniProt P29473).
T1 construct: purchased Cayman Chemical (Ann Arbor, USA)
Briefly: NOS inhibition assay (L-citrulline, fluorometric detection), eNOS. It counts as biochemical, bovine. The conditions noted are these: for inhibition at 10 µM / Inhibition (%) eNOS: compound at 10 µM. The protocol:
The investigated compounds were tested at 1 µM against the iNOS and 10 µM against the eNOS to determine their isoform selectivity. Because of its critical role in cardiovasculature, inhibiting the constitutive enzyme eNOS should be avoided.
Refer to Supplementary Appendix SA1 for more details.
4.2.4. NOS inhibition assay
Recombinant human iNOS was purchased from Enzo Life Sciences, Inc. (New York, USA).
Recombinant bovine eNOS was purchased from Cayman Chemical (Ann Arbor, USA). To measure iNOS activity, 10 μL of enzyme stock solution were added to 80 μL of 2-[4-(2-hydroxyethyl) piperazin-1-yl]ethanesulfonic acid (HEPES) buffer pH = 7.4, 100 mM, containing 0.1 mM CaCl2, 1 mM D,L-dithiothreitol (DTT), 0.5 mg/mL BSA, 10 μM flavin mononucleotide (FMN), 10 μM flavin adenine dinucleotide (FAD), 30 μM tetrahydrobiopterin (BH4), 10 μg/mL calmodulin (CaM), 10 μM L-Arg. For the eNOS activity evaluation, 25 μL of the enzyme stock solution were added to 65 μL of HEPES buffer containing 2 mM CaCl2 and the same cofactors […]
μM) were added to the enzyme assay solution, followed by pre -incubation of 15 min at 37 ◦C.
Each reaction was initiated by the addition of 10 μL of NADPH 7.5 mM, carried out at 37 ◦C for 30 min, and stopped by adding 500 μL of ice -cold CH3CN. The mixture was brought to dryness under vacuum and eventually stored at – 20 ◦C, before the HPLC analysis. […]

For another experiment, the system named is Caspase-8. Briefly: Caspase-8 activation assay. Type of experiment: cell-based, human. The conditions noted are these: A-594 cells; for Caspase-8 Fold change: at IC50 concentration, vs untreated control; for Caspase-8 Conc: compound at its IC50 concentration. The protocol: When cells get specific signal instructions, they undergo apoptosis, which results in several significant changes. Caspases, considered the main workers in apoptosis, are activated early in the process, cleaving critical cellular components such as nuclear proteins like DNA repair enzymes or structural proteins found in the cytoskeleton that are required for optimal cellular function.
4.2.6. Caspase-8 activation assay […]
caspase8, and lysed with Cell Extraction Buffer. This lysate was diluted in Standard Diluent Buffer over the range of the assay and measured for human active caspase-8 content. (Cells are Plated in a density of 1.2 – 1.8 × 10,000 cells/well in a volume of 100µl complete growth medium + 100 ul of the tested compound per well in a 96-well plate for 24 hours before the enzyme assay for Tubulin.). The absorbance of each microwell was read on a spectro-photometer at 450 nm. A standard curve is prepared from 7human Caspase-8 standard dilutions and human Caspase-8 concentration determined. […]

The structures appear in SMILES notation.

Regarding `CCc1c2cc(Cl)ccc2n2c(C)c(C(=O)OCc3ccccc3)[nH]c(=O)c12` [Compound 5, benzyl 8-chloro-10-ethyl-4-methyl-1-oxo-1,2-dihydropyrazino [1,2-a]indole-3-carboxylate], the 50% inhibitory concentration (IC50) (as a rule, the point on the concentration scale where inhibition reaches its midpoint) came out at 34 ± 3 nM in the experiment with MCF-7 cells, 32 ± 3 nM with Panc-1 cells, 32 ± 3 nM in the experiment with HT-29 cells and 32 nM in experiment [1] (Homo sapiens). At eNOS, the inhibition – broadly, the share of the control response that was lost under treatment – at 10 µM amounted to 49 ± 2%.

As to `CCc1c2cc(Cl)ccc2n2c(C)c(C(=O)NCc3ccccc3)[nH]c(=O)c12` [Compound 7, N-benzyl-8-chloro-10-ethyl-4-methyl-1-oxo-1,2-dihydropyrazino [1,2-a]indole-3-carboxamide], the half-inhibitory concentration (IC50) stood at 30 ± 3 nM in the experiment with MCF-7 cells, 28 ± 2 nM in the experiment on Panc-1 cells, 29 ± 2 nM with HT-29 cells and 29 nM in experiment [1] (Homo sapiens). Moreover, the “Fold more effective than compound 11 (GI50)” value in experiment [1] is given as “at least 1.4 fold”. For the same compound, on eNOS, the “Inhibition (%) eNOS” value is listed as “moderate inhibitory action”. The same compound displayed an inhibition at 10 µM at eNOS of 32 ± 2%.

For `CCc1c2cc(Cl)ccc2n2cc(Cc3ccccc3)n(C)c(=O)c12` [Compound 12, 3-Benzyl-8-chloro-10-ethyl-2-methylpyrazino[1,2-a]indol-1(2H)-one], the IC50 is 25 ± 2 nM with MCF-7 cells; 24 ± 2 nM with Panc-1 cells; 25 ± 2 nM with HT-29 cells; 25 nM in experiment [1] (Homo sapiens); 24 nM in experiment [1]; more than 50000 nM at eNOS. Besides, the “Fold potency relative to Erlotinib (GI50)” value in experiment [1] (GI50 24 nM vs Erlotinib […] nM) is reported as 1.4 fold. For the same compound, at eNOS, the “Inhibition (%) eNOS” value is “completely inactive”. Moreover, the “Caspase-8 Fold change” value with Caspase-8 is 29. The “Caspase-8 Conc” value in the experiment on Caspase-8 was 2.60 ± 0.20 ng/mL.

On to `CCc1c2cc(Cl)ccc2n2cc(-c3ccccc3)[nH]c(=O)c12` [Compound 16, 8-Chloro-10-ethyl-3-phenylpyrazino [1,2-a]indol-1(2H)-one], for which the IC50 was 28 ± 2 nM with MCF-7 cells; 25 ± 2 nM in the experiment on Panc-1 cells; 25 ± 2 nM with HT-29 cells; 28 nM in experiment [1] (Homo sapiens); 26 nM in experiment [1]; more than 50000 nM on eNOS. Besides, in experiment [1], the “Fold more effective than compound 11 (GI50)” value is listed as “at least 1.4 fold”. On eNOS, the “IC50 eNOS” value was “inactive”. The “Inhibition (%) eNOS” value on eNOS is “completely inactive”. In addition, the “Caspase-8 Fold change” value in the experiment on Caspase-8 was found to be 25. In addition, the “Caspase-8 Conc” value with Caspase-8 was found to be 2.25 ± 0.18 ng/mL.
